Reference: patent US9034856B2, “17-(1′propenyl)-17-3′-oxidoestra-4-en-3-one derivative, use thereof, and medicament containing said derivative” (Bayer Intellectual Property GmbH, priority 2007, dated 2015)
Where two headings read alike, the source gives them in different places.

How the values were obtained:
[1] = target: T1, mineralocorticoid receptor (Homo sapiens (Human), UniProt P08235); test: Antimineralocorticoid action by transactivation test (MDCK reporter cells); format: cell-based; settings: for IC50: read-out: Mineralocorticoid receptor Antagonism IC50; for Emax: read-out: Mineralocorticoid receptor Antagonism efficacy; for Mineralocorticoid receptor Antagonism (result in words): cell spans IC50 and efficacy
Experimental: 5. Determination of Antimineralocorticoid Action by Means of Transactivation Tests:
The antimineralocorticoid activity of the test substances was determined as for the transactivation tests described above.
The following modifications were undertaken: In this case reporter cell lines were used (MDCK cells) that express the human mineralocorticoid receptor, and transiently contain a reporter construct that contains luciferase under the control of a steroid hormone-responsive promoter.

androgen receptor [2] = target: T2, androgen receptor (Homo sapiens (Human), UniProt P10275); test: Androgenic/antiandrogenic action by transactivation test (PC3 reporter cells); format: cell-based; settings: for IC50: 0.05 nM R1881, read-out: Androgen receptor Antagonism IC50; for EC50: read-out: Androgen receptor Agonism EC50
Experimental: 6. Determination of Androgenic/Antiandrogenic Action by Means of Transactivation Tests:
The androgenic/antiandrogenic action of the test substances was determined as for the transactivation tests described above.
The following modifications were made: In this case reporter cell lines were used (PC3 cells) that express the androgen receptor, and a reporter construct that contains luciferase under the control of a steroid hormone-responsive promoter.
For determination of the antiandrogenic efficacy, 0.05 nM R1881 was added to the cells, in order to achieve almost maximum stimulation of the reporter gene.

progesterone receptor = progesterone receptor (Homo sapiens (Human), UniProt P06401); test: Progesterone receptor binding test; settings: for Progesterone receptor (PR) Competition factor: CF 1 = affinity of progesterone, CF > 1 lower affinity; for IC50: displacement of 3H-progesterone, cytosol from PR-expressing Hi5 insect cells; for CF PR/CF MR: ratio of competition factors CF(PR) and CF(MR)
Experimental: 1. Progesterone Receptor Binding Test:
Using cytosol from progesterone receptor-expressing insect cells (Hi5), competitive binding to the progesterone receptor was determined from the ability to displace ^3H-progesterone as reference substance from the receptor.

[3] = target: T1, mineralocorticoid receptor; test: Mineralocorticoid receptor binding test; settings: reference 3H-aldosterone, Hi5 cytosol
Source text: 2. Mineralocorticoid Receptor Binding Test:

[4] = target: fusion protein from the PR-ligand-binding domain and a Gal4-transactivation domain (Homo sapiens, UniProt P06401); test: Progestational action by transactivation test (CHO K1 reporter cells); format: cell-based; settings: CHO K1 luciferase reporter, 16 hours incubation; for EC50: read-out: Progesterone receptor Agonism EC50; for Emax: read-out: Progesterone receptor Agonism efficacy
Experimental: 4. Determination of Progestational Action by Means of Transactivation Tests:
The test compounds were added eight hours later, and the cells were incubated with the compounds for 16 hours. The tests were carried out in triplicate. At the end of incubation the medium containing the effector was removed and replaced with lysis buffer. After luciferase assay substrate (Promega, #E1501) had been added, the 96-well plates were then put in a microplate luminometer (Pherastar, BMG Labtech), and the luminescence was measured. The IC50 values were evaluated using software for calculating dose-effect relations.

androgen receptor [5] = target: T2, androgen receptor; test: Androgen receptor binding test; settings: reference 3H-testosterone, Hi5 cytosol; for IC50: read-out: Androgen receptor IC50
Experimental: Androgen Receptor Binding Test:
The test was carried out as in 1., with the following modifications: cytosol from androgen receptor-expressing insect cells (Hi5) was used, and the reference substance was ^3H-testosterone.

[6] = MDCK reporter cells, 1 nM aldosterone
[7] = 0.05 nM R1881, read-out: Androgen receptor Antagonism efficacy
[8] = read-out: Androgen receptor Agonism efficacy

T2 sequence (P10275 whole entry, species assumed): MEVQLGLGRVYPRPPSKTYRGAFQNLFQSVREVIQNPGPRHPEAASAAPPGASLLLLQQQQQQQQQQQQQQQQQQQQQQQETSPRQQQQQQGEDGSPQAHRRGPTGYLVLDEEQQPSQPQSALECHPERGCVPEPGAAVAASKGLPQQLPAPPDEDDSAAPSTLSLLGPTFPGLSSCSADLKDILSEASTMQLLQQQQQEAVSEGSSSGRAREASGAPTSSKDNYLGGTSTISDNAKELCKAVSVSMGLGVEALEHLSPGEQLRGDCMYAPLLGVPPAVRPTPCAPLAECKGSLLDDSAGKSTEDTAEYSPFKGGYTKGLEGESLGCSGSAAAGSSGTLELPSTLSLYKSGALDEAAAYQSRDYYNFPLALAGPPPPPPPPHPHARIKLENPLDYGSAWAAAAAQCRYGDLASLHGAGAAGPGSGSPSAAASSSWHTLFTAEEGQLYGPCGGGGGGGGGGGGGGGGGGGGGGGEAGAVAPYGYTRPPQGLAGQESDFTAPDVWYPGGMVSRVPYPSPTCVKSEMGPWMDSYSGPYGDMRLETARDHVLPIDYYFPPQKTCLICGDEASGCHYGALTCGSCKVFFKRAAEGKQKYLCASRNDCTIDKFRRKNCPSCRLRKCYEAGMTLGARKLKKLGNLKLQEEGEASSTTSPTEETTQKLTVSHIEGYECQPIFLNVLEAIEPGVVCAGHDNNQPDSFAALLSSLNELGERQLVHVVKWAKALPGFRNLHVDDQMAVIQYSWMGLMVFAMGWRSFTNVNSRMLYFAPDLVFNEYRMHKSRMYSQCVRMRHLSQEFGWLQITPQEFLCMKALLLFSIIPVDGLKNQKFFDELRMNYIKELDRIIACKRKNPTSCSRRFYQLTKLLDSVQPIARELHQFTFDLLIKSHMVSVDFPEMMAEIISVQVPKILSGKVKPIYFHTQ
Sequence of progesterone receptor (P06401 whole entry, species assumed): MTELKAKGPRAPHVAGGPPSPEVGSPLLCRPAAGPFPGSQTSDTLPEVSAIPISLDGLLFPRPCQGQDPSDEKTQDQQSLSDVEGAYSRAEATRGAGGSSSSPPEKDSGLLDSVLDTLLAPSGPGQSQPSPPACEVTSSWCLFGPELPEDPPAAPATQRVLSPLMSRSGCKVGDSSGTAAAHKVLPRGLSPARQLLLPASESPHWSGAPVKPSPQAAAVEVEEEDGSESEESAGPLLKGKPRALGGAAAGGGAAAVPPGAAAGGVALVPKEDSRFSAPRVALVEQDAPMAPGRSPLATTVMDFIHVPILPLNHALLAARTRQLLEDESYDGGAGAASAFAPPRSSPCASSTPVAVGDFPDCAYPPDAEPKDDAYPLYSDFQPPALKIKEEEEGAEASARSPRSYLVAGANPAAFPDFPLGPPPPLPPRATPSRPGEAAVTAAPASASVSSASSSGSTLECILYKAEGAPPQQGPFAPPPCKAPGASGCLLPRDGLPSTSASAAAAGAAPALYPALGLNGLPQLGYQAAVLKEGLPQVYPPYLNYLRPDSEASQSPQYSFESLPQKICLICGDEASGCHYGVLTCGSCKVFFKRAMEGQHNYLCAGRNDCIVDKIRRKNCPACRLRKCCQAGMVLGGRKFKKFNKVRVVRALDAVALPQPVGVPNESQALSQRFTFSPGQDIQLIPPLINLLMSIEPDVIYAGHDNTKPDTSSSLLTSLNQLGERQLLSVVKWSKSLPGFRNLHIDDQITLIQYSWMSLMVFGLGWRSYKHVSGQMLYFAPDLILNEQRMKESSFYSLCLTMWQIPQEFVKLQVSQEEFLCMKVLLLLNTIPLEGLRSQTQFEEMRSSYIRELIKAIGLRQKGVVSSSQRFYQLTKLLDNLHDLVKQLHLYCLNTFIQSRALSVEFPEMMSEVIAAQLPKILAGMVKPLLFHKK
T1 sequence (P08235 whole entry): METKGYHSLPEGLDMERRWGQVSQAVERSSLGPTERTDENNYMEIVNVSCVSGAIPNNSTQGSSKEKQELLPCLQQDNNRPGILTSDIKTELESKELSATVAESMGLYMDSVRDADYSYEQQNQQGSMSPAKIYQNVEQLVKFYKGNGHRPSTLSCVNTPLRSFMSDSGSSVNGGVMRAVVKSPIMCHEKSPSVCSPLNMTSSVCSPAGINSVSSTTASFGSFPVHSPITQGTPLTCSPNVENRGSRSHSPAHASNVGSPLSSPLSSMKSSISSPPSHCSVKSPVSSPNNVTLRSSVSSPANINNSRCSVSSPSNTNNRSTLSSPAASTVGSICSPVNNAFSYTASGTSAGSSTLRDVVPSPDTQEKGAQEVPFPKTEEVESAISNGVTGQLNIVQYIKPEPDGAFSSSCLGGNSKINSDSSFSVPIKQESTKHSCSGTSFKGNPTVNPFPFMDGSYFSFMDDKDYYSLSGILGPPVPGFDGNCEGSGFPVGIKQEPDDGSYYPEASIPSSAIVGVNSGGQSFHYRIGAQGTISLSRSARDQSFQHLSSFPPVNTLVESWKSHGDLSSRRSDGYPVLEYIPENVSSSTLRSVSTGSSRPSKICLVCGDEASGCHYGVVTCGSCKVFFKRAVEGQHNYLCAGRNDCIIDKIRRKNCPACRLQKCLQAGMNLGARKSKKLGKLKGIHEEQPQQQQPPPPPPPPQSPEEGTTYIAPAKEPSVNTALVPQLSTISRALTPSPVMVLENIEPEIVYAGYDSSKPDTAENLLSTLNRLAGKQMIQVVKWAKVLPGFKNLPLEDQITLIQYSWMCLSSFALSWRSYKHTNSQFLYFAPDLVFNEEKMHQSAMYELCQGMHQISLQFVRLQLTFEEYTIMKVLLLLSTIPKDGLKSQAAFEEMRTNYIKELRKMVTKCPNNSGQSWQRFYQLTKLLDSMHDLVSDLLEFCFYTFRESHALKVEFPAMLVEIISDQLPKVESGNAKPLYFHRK
Sequence of fusion protein from the PR-ligand-binding domain and a Gal4-transactivation domain (P06401 679-913): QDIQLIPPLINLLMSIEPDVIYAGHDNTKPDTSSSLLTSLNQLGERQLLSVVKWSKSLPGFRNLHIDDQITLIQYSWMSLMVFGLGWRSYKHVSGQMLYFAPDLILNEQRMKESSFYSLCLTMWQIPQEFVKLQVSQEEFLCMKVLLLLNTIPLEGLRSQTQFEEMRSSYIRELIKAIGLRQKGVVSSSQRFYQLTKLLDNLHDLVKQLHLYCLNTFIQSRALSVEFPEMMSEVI

| SMILES | IC50 [1, 6] | Emax [1, 6] | Emax (androgen receptor [2]; [7]) | Emax (androgen receptor [2]; [8]) | Progesterone receptor (PR) Competition factor (progesterone receptor) | IC50 (progesterone receptor) | Mineralocorticoid receptor (MR) Competition factor [3] | EC50 [4] | Emax [4] | IC50 (androgen receptor [2]) | EC50 (androgen receptor [2]) | Androgen receptor Competition factor (androgen receptor [5]) | CF PR/CF MR (progesterone receptor) | Emax ([1]; MDCK) | IC50 (androgen receptor [5]) | Mineralocorticoid receptor Antagonism (result in words) [1, 6] |
| --- | --- | --- | --- | --- | --- | --- | --- | --- | --- | --- | --- | --- | --- | --- | --- | --- |
| C[C@]12CC[C@H]3[C@@H](CCC4=CC(=O)CC[C@@H]43)[C@@H]1CC[C@@]21C=CCO1 (stereo in doubt) [Example 1, 17α-(1′-Propenyl)-17β-3′-oxidoestra-4-en-3-one] | 31 nM | 83% | 29% | 62.7% | 0.46 | 3 nM | 2.6 |  |  |  |  |  |  |  |  |  |
| C[C@]12CC[C@H]3[C@@H](C=CC4=CC(=O)CC[C@@H]43)[C@@H]1CC[C@@]21C=CCO1 (stereo in doubt) [Example 2, 17α-(1′-Propenyl)-17β-3′-oxidoestra-4,6-dien-3-one] | 92 nM | 136% | 34.4% | 31.9% | 2.29 | 55.5 nM | 8.9 | 2.9 nM | 36.4% |  |  |  |  |  |  |  |
| C[C@]12CC[C@H]3[C@@H](CCC4=CC(=O)CC[C@@H]43)[C@@H]1CC1(CC1)[C@@]21C=CCO1 (stereo in doubt) [Example 6, 16,16-Ethylene-17α-(1′-propenyl)-17β-3′-oxidoestra-4-en-3-one] | 1000 nM | 65.1% | 70.1% | 49.7% | 3.41 | 110 nM | 22.9 |  |  |  |  |  |  |  |  |  |
| CC[C@]12CC[C@H]3[C@@H](CCC4=CC(=O)CC[C@@H]43)[C@@H]1CC[C@@]21C=CCO1 (stereo in doubt) [Example 7, 18-Methyl-17α-(1′-propenyl)-17β-3′-oxidoestra-4-en-3-one] | 5 nM | 87.8% | 25.4% | 78.3% | 0.19 | 5.3 nM | 1.6 |  |  | 160 nM | 3.7 nM | 0.5 | 0.12 |  |  |  |
| CC[C@]12CC[C@H]3[C@@H](C=CC4=CC(=O)CC[C@@H]43)[C@@H]1CC[C@@]21C=CCO1 (stereo in doubt) [Example 8, 18-Methyl-17α-(1′-propenyl)-17β-3′-oxidoestra-4,6-dien-3-one] | 66 nM | 112% | 5% | 62% | 1.78 |  | 1.2 | 1.1 nM | 12.3% |  |  |  |  |  |  |  |
| C[C@]12CCC(=O)C=C1[C@@H]1C[C@@H]1[C@H]1[C@@H]3[C@@H]4C[C@@H]4[C@@]4(CCC(=O)O4)[C@@]3(C)CC[C@@H]12 [A, 6β,7β-15β,16β-dimethylene-3-oxo-17-pregn-4-ene-21,17β-carbolactone, reference compound] |  |  |  |  | 2.7 |  | 0.5 |  | 72.2% |  |  |  |  | 64.1% |  |  |
| C[C@@H]1CC2=CC(=O)CC[C@@H]2[C@H]2CC[C@@]3(C)[C@@H](CC[C@@]34C=CCO4)[C@@H]21 [Example 3, 7α-Methyl-17α-(1′-propenyl)-17β-3′-oxidoestra-4-en-3-one] | 17 nM | 112% | 5% | 80.2% | 2.41 | 62 nM | 3.2 | 3.7 nM | 61.6% |  |  |  |  |  |  |  |
| CC[C@@H]1CC2=CC(=O)CC[C@@H]2[C@H]2CC[C@@]3(C)[C@@H](CC[C@@]34C=CCO4)[C@H]12 [Example 4, 7α-Ethyl-17α-(1′-propenyl)-17β-3′-oxidoestra-4-en-3-one] | 310 nM | 82.2% | 5% | 62.3% | 11.75 | 130 nM | 4.1 | 67 nM | 65.1% | 1000 nM | 7.3 nM | 2.9 | 2.87 |  | 64 nM |  |
| C=C[C@@H]1CC2=CC(=O)CC[C@@H]2[C@H]2CC[C@@]3(C)[C@@H](CC[C@@]34C=CCO4)[C@@H]21 [Example 5, 17α-(1′-Propenyl)-7α-vinyl-17β-3′-oxidoestra-4-en-3-one] | 57 nM | 121% | 5% | 86.8% | 2.46 |  | 2.6 | 1.2 nM | 21.9% | 1000 nM | 3.7 nM | 2.2 | 0.95 |  | 53 nM |  |
| CC[C@]12CC[C@H]3[C@@H]([C@H](C)CC4=CC(=O)CC[C@@H]43)[C@@H]1CC[C@@]21C=CCO1 [Example 9, 7α,18-Dimethyl-17α-(1′-propenyl)-17β-3′-oxidoestra-4-en-3-one] | 38 nM | 105% | 5% | 77.9% | 3.26 | 77 nM | 1.6 | 7.1 nM | 55.9% | 1000 nM | 3 nM | 3.0 | 2.04 |  | 81 nM |  |
| CC[C@@H]1CC2=CC(=O)CC[C@@H]2[C@H]2CC[C@@]3(CC)[C@@H](CC[C@@]34C=CCO4)[C@H]12 [Example 10, 7α-Ethyl-18-methyl-17α-(1′-propenyl)-17β-3′-oxidoestra-4-en-3-one] | 850 nM | 39.2% | 5% | 70.4% | 7.03 | 170 nM | 1.1 | 780 nM | 26.4% | 1000 nM | 9.4 nM | 4.1 | 6.39 |  | 110 nM |  |
| C=C[C@@H]1CC2=CC(=O)CC[C@@H]2[C@H]2CC[C@@]3(CC)[C@@H](CC[C@@]34C=CCO4)[C@@H]21 [Example 11, 7α-Vinyl-18-methyl-17α-(1′-propenyl)-17β-3′-oxidoestra-4-en-3-one] |  |  | 5% | 88.8% | 6.24 | 170 nM | 1.3 | 100 nM | 29.5% | 1000 nM | 5.3 nM | 4.7 | 4.80 |  | 1300 nM | Partial agonist |
| CC[C@]12CC[C@H]3[C@@H]([C@H](C4CC4)CC4=CC(=O)CC[C@@H]43)[C@@H]1CC[C@@]21C=CCO1 [Example 12, 7α-Cyclopropyl-18-methyl-17α-(1′-propenyl)-17β-3′-oxidoestra-4-en-3-one] |  |  | 5% | 70.1% | 8.51 | 210 nM | 2.0 | 55 nM | 30.9% |  |  |  |  |  |  | Partial agonist |
| CC[C@]12CC[C@H]3[C@@H](C[C@@H](CO)C4=CC(=O)CC[C@@H]43)[C@@H]1CC[C@@]21C=CCO1 [Example 13, 6β-Hydroxymethylene-18-methyl-17α-(1′-propenyl)-17β-3′-oxidoestra-4-en-3-one] | 110 nM | 98.8% | 48.1% | 5% | 88.59 | 2100 nM | 2.2 | 1000 nM | 5% | 140 nM | 1000 nM | 1000.0 | 40.27 |  | 1000 nM |  |
